Experimental data reported in patent US9206226B2, “Non-ionic acid-labile surfactants and methods of use” (Protea Biosciences, Inc., priority 2011, dated 2015).

Target: bovine serum albumin (BSA) (Bos taurus, UniProt P02769)
Experiment: MALDI-TOF mass spectra of BSA with surfactant, intact and acid-degraded
Conditions: for BSA MALDI signal after surfactant degradation: degraded about 30 minutes in 1% TFA at pH 2.5
Excerpt: The various embodiments of non-ionic acid-labile surfactants and methods of use described herein may be better understood when read in conjunction with the following representative examples. The following examples are included for purposes of illustration and not limitation. MALDI-TOF spectra were acquired using an ABI 4800 mass spectrometer in the linear mode.
Referring to FIGS. 2A-C, 0.1% N-[2,2-Bis(pentyloxy)propan-1-aminocarbonyl]-β-maltosylamine was mixed with bovine serum albumin (BSA) in water. The samples were spotted onto a MALDI pre-spotted target with CHCA MALDI matrix using C8 reversed phase tips. FIG. 2A includes a mass spectra of 20 pmol BSA in water. BSA was detected at m/z 22344, m/z 33480, and m/z 66854. FIG. 2B includes a mass spectra of 20 pmol BSA dissolved in 0.1% N-[2,2-Bis(pentyloxy)propan-1-aminocarbonyl]-β-maltosylamine. […] FIG. 2C includes a mass spectra of 20 pmol BSA in 0.1% N-[2,2-Bis(pentyloxy)propan-1-aminocarbonyl]-β-maltosylamine after being degraded for about thirty (30) minutes in 1% TFA at pH 2.5. BSA was detected at m/z 22212, m/z 33309, and m/z 66460.
Referring to FIGS. 3A-C, 1% N-[2,2-Bis(pentyloxy)propan-1-aminocarbonyl]-β-maltosylamine was mixed with bovine serum albumin (BSA) in water. The samples were spotted onto a MALDI pre-spotted target with CHCA MALDI matrix using C8 reversed phase tips. FIG. 3A includes a mass spectra of 20 pmol BSA in water. BSA was detected at m/z 22344, m/z 33480, and m/z 66854. FIG. 3B includes a mass spectra of 20 pmol BSA dissolved in 1% N-[2,2-Bis(pentyloxy)propan-1-aminocarbonyl]-β-maltosylamine. […] FIG. 3C includes a mass spectra of 20 pmol BSA in 1% N-[2,2-Bis(pentyloxy)propan-1-aminocarbonyl]-β-maltosylamine after being degraded for about thirty (30) minutes in 1% TFA at pH 2.5. BSA was detected at m/z 22260, m/z 33377, and m/z 66527.
Referring to FIGS. 5A-C, 0.1% N-[2,2-Bis(hexyloxy)propan-1-aminocarbonyl]-β-maltosylamine was mixed with BSA. The samples were spotted onto a MALDI pre-spotted target with CHCA MALDI matrix using C8 reversed phase tips. FIG. 5A includes a mass spectra of 20 pmol BSA in water. BSA was detected at m/z 22344, m/z 33480, and m/z 66854. FIG. 5B includes a mass spectra of 20 pmol BSA dissolved in 0.1% N-[2,2-Bis(hexyloxy)propan-1-aminocarbonyl]-β-maltosylamine. […] FIG. 5C includes a mass spectra of 20 pmol BSA in 0.1% N-[2,2-Bis(phexyloxy)propan-1-aminocarbonyl]-β-maltosylamine after being degraded for about thirty (30) minutes in 1% TFA at pH 2.5. BSA was detected at m/z 22197, m/z 33284, and m/z 66405.

[1] = 20 pmol BSA dissolved in 0.1% surfactant

bovine serum albumin (BSA), sequence (P02769 25-607): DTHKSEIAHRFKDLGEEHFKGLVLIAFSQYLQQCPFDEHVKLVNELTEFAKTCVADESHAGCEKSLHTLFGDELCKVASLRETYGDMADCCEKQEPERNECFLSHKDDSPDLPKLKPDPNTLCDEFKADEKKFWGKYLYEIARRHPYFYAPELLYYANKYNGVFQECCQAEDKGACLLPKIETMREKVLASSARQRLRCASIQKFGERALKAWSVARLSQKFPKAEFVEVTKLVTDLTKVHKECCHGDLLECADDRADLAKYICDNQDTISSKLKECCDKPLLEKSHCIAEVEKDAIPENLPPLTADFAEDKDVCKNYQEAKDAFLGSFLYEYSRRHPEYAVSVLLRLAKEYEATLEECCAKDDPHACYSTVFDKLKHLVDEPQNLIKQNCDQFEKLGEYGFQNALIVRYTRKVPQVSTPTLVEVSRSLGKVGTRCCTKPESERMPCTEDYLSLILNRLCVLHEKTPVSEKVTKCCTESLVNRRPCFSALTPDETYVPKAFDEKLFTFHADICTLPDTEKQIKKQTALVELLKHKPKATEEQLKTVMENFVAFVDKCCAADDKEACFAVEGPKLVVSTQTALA

SMILES | BSA MALDI signal, intact surfactant [1] | BSA MALDI signal after surfactant degradation (0.1% surfactant) | BSA MALDI signal, intact surfactant (20 pmol BSA dissolved in 1% surfactant) | BSA MALDI signal after surfactant degradation (1% surfactant)
CCCCCCOC(C)(CNC(=O)NC1OC(CO)C(OC2OC(CO)C(O)C(O)C2O)C(O)C1O)OCCCCCC (stereo not drawn) [N-[2,2-Bis(hexyloxy)propan-1-aminocarbonyl]-β-maltosylamine] | no signal from the BSA was detected | a signal from the BSA was detected when the surfactant was degraded | – | –
CCCCCOC(C)(CNC(=O)NC1OC(CO)C(OC2OC(CO)C(O)C(O)C2O)C(O)C1O)OCCCCC (stereo not drawn) [N-[2,2-Bis(pentyloxy)propan-1-aminocarbonyl]-β-maltosylamine] | no signal from the BSA was detected | a signal from the BSA was detected when the surfactant was degraded | no signal from the BSA was detected | a signal from the BSA was detected when the surfactant was degraded
